Test results: patent publication US12611438B2, “Antiviral composition comprising a nucleolin-binding peptide” (ANYGEN CO., LTD., priority 2021, dated 2026)

Columns and labels:
SARS-COV-2 = experiment: microbe, parasite or virus in culture; conditions: Severe acute respiratory syndrome coronavirus 2, Vero C1008, 24 h
in vitro = conditions: African green monkey
MDA-MB-231 = experiment: OBOC bead whole-cell binding assay; conditions: peptide on OBOC beads, cells at 10^6 cells/ml
Description: (§1) Before screening, beads were extensively washed with double distilled water and phosphate buffered saline (PBS; Welgene Inc., Republic of Korea). Cancer cells and normal cells were separated from the culture dish using trypsin/EDTA (Gibco) and washed with the corresponding culture medium. The cells were resuspended at 10^6 cells/ml and cultured while shaking (60 rpm) in a 37° C. humidified CO2 incubator with OBOC beads in a Petri dish. Beads bound by cells observed with the microscope had the shape of rosettes having central beads covered with one or more cell layers. Under an inverted microscope, positive beads were picked out with a pipette, and treated with guanidine-HCL (8M, 20 minutes) to remove cells and proteins from the bead surface, and secondary screening was performed with normal breast epithelial cells to detect false positive binding. Peptide sequencing was performed by selecting only beads having cell binding in both rounds.
(§2) Libraries of peptides listed in beads (50,000 to 100,000 beads were used at one time) was mixed with a human breast cancer cell line (MDA-MB-231). […] Then, these three peptides were labeled with fluorescein isothiocyanate (FITC) and the ability thereof to bind to MDA-MB-231 cells was determined.

MCF-10A, CCD-18Co = experiment: Bead whole-cell binding assay, normal cell lines; conditions: cell growth bead analysis
Description: as §1, §2

Molecule | IC50 (SARS-COV-2) [µM] | CC50 at 24 h (in vitro) [µM] | binding to breast cancer cell line MDA-MB-231 (MDA-MB-231) | binding to normal cell lines MCF-10A and CCD-18Co (MCF-10A, CCD-18Co) | CC50 (in vitro) [µM]
Cc1cccc(C)c1OCC(=O)N[C@@H](Cc1ccccc1)[C@@H](O)C[C@H](Cc1ccccc1)NC(=O)[C@H](C(C)C)N1CCCNC1=O [Lopinavir, lopinavir] | 15.5 | > 50 |  |  | 
AVARARRRR (Synthetic construct AGM-332) |  |  | strong, specific, and preferential binding | relatively non-specific and bound | 
CCC(CC)COC(=O)[C@H](C)N[P@](=O)(OC[C@H]1O[C@@](C#N)(c2ccc3c(N)ncnn23)[C@H](O)[C@@H]1O)Oc1ccccc1 [Remdesivir, remdesivir] | 10.9 |  |  |  | > 50
